# Source: US20100009934A1, “BETA ADRENERGIC RECEPTOR AGONISTS FOR THE TREATMENT OF B-CELL PROLIFERATIVE DISORDERS” (CombinatoRx, Incorporated, priority 2008, published 2010)
# Several values for one entry are separate records, joined by “and”; a condition that tells them apart may be missing. Identical values can stand only once. Like-named read-outs stand apart in the source and are kept apart here.
# Key:
# [1] = test system: Human Multiple Myeloma Cells (MM.1S); assay: Antiproliferative activity on MM.1S in the presence of beta adrenergic receptor antagonist (CGP 12177A or ICI 118,551); assay type: cell-based
# beta 3 vs. beta 2 = conditions: Mol Phar 1994 46(2):357-63; cited from earlier work
# [2] = test system: Human Multiple Myeloma Cells (MM.1S); assay: Anti-proliferation assay (ATPLite, 72 hours), MM.1S
# [3] = test system: Human Multiple Myeloma Cells (EJM); assay: Anti-proliferation assay (ATPLite, 72 hours), EJM; conditions: for Antiproliferative Activity: DEX μM r7-r15: 2.03, 0.675, 0.225, 0.075, 0.025, 0.00834, 0.00278, 0.00093, 0
# [4] = test system: Human Multiple Myeloma Cells (ANBL-6); assay: Anti-proliferation assay (ATPLite, 72 hours), ANBL-6
# MM.1S cells = assay: Annexin V / propidium iodide apoptosis assay, MM.1S; assay type: cell-based, human; conditions: for induction of MM.1S cell apoptosis: 72 hours (FIG. 2)
# Description: Effects on cell viability were determined by measuring the percent of cells that were annexin V positive (an early marker for apoptosis) and by measuring the percent of cells propidium iodide (PI) positive, an indicator that cellular membranes are compromised and a marker of cell death.
# [5] = test system: Human Multiple Myeloma Cells (MM.1S) cultured in the presence of BAR agonist for one month; assay: Antiproliferative activity on MM.1S cultured one month in the presence of salmeterol or salbutamol; assay type: cell-based; conditions: MM.1S cultured in Salbutamol for one month (final 150 nM), DEX (μM): 2.0, 0.666, 0.23, 0.074, 0.024, 0.0082, 0.00274, 0.0009, 0
# Description: A recurrent problem in cancer therapy is that prolonged exposure of tumor cells to chemotherapeutic agents can generate cells resistant to agents that initially have antiproliferative or cell killing activity. […] Cells cultured for one month in the presence of BAR agonist were washed to remove drug and put into 384 well plates for 9×9 dose matrix combination screening with BAR agonists and dexamethasone.
# [6] = test system: human multiple myeloma cells (MM.1R); assay: Antiproliferative activity of salbutamol on MM.1R after transfection of siRNA; assay type: cell-based; conditions: 72 hours (FIG. 4)
# Description: Specific gene silencing was greater than 60% as determined by real time PCR analysis 48 hours post-transfection. At 48 hours post-transfection, cells were exposed to the beta 2 receptor agonist salbutamol and incubated an additional 72 hours, and the compounds were assayed for antiproliferative activity.
# [7] = test system: multiple myeloma tumor cells from patients; assay: MTT cell viability assay, multiple myeloma patient tumor cells; conditions: Homo sapiens, 48 h, read-out: tumor cell viability
# Description: Tumor cells were obtained via bone marrow aspirates and affinity selected using CD138-linked magnetic beads.
# [8] = test system: Human Multiple Myeloma Cells (MM.1S)
# [9] = test system: RPMI-8226 multiple myeloma (MM) xenograft; conditions: Day 19; 10 mg/kg salmeterol, 0.5 mg/kg bortezomib, or both
# Description: Dexamethasone was administered by intraperitoneal (IP) injection daily for thirty-six treatments (QD×36). Bortezomib was injected intravenously (IV) every third day for six treatments (Q3D×6).
# Group 1—Vehicle (90% PBS+10% EtOH)
# Significant endpoints included mean tumor growth inhibition (TGI) or regression, animal weight loss, and potential toxicity. […] Animals were implanted with cancer cells harvested from tissue culture and allowed to establish tumors in SCID mice. Treatment initiated when the mean tumor volume reached 137 mm^3 in size.
# RPMI-8226 cells = conditions: soft agar, three weeks
# Description: The effect of BAR agonists on cells grown in soft agar was also determined. This approach allows the measurement of long term cell viability after single agent or combination treatment. […] Cells were washed and plated in soft agar. After three weeks colonies were counted to determine cell viability.
# [10] = Homo sapiens, MM1.S, read-out: percent inhibition of cell proliferation
# [11] = Homo sapiens, Multiple myeloma cell, 72 h, read-out: percent inhibition of cell proliferation
# [12] = Homo sapiens, MM1.S, 72 h, read-out: percent inhibition of cell proliferation
# [13] = Homo sapiens, MM1.S, 72 h, read-out: percent inhibition (% I)
# [14] = Homo sapiens, MM1.S, read-out: Antiproliferative Activity (inhibition of proliferation)
# [15] = Homo sapiens, ANBL-6, 72 h, read-out: percent inhibition (% I)
# [16] = Homo sapiens, ANBL-6, read-out: percent inhibition of cell proliferation
compound,measurement,setting,value
"CC(Cc1ccc(OCC(=O)O)cc1)NCC(O)c1cccc(Cl)c1 (stereo not drawn) [BRL37344, (4-(2-((2-(3-chlorophenyl)-2-hydroxyethyl)amino)propyl)phenoxy)acetic acid]",inhibition at 0.01 µM,[1]; [10],-8.2%
same,inhibition at 0.02 µM,[1]; [10],-12%
same,selectivity for beta 3 vs. beta 2,beta 3 vs. beta 2,76 fold
same,inhibition at 0.01 µM,[2]; [10],10%
same,inhibition at 0.02 µM,[2]; [10],10%
same,single agent antiproliferative activity,[2]; MM.1S (Table 45),not very active
"CC(CCc1ccc(O)cc1)NCCc1ccc(O)c(O)c1 (stereo not drawn) [Dobutamine, dobutamine]",inhibition at […],"[1]; Homo sapiens, MM1.S, in the presence of 0.91 μM ICI, 118,551, Dobutamine 0.063 μM, Dexamethasone (μM) by row: r8 0.15, r9 0.076, r10 0.038, r11 0.019, r12 0.0095, r13 0, read-out: percent inhibition of cell proliferation",2.2%
same,inhibition at […],"[1]; Homo sapiens, MM1.S, in the presence of 0.91 μM ICI, 118,551, Dobutamine 0.13 μM, Dexamethasone (μM) by row: r8 0.15, r9 0.076, r10 0.038, r11 0.019, r12 0.0095, r13 0, read-out: percent inhibition of cell proliferation",2%
same,inhibition at […],"[1]; Homo sapiens, MM1.S, in the presence of 0.91 μM ICI, 118,551, Dobutamine 0.25 μM, Dexamethasone (μM) by row: r8 0.15, r9 0.076, r10 0.038, r11 0.019, r12 0.0095, r13 0, read-out: percent inhibition of cell proliferation",-5.4%
same,inhibition at […],"[1]; Homo sapiens, MM1.S, in the presence of 0.91 μM ICI, 118,551, Dobutamine 0.51 μM, Dexamethasone (μM) by row: r8 0.15, r9 0.076, r10 0.038, r11 0.019, r12 0.0095, r13 0, read-out: percent inhibition of cell proliferation",-2.8%
same,inhibition at 1 µM,"[1]; Homo sapiens, MM1.S, in the presence of 0.91 μM ICI, 118,551, Dobutamine 1.0 μM, Dexamethasone (μM) by row: r8 0.15, r9 0.076, r10 0.038, r11 0.019, r12 0.0095, r13 0, read-out: percent inhibition of cell proliferation",-1.8%
same,inhibition at 0.0316 µM,[3]; [11],-2.3%
same,inhibition at 0.506 µM,[3]; [11],21.5%
same,inhibition at 0.0316 µM,[2]; [12],-2.04%
same,inhibition at 0.506 µM,[2]; [12],22.9%
same,inhibition at 1 µM,[2]; [10],28%
CC(C)(C)NCC(O)c1cc(Cl)c(N)c(Cl)c1 (stereo not drawn) [Clenbuterol],inhibition at 0.0006 µM,[2]; [10],66%
same,inhibition at 0.01 µM,[2]; [10],78%
same,inhibition at […],[2]; [10],61% and 62% and 57%
COc1ccc(CC(C)NCC(O)c2ccc(O)c(NC=O)c2)cc1 (stereo not drawn) [formoterol],inhibition at 2.53 pM,[2]; [13],18.9%
same,inhibition at 5.06 pM,[2]; [13],23.8%
same,inhibition at 10.1 pM,[2]; [13],40.8%
same,inhibition at 20.2 pM,[2]; [13],52.7%
same,inhibition at 40.5 pM,[2]; [13],54.7%
same,inhibition at 81 pM,[2]; [13],65.9%
same,inhibition at 2.53 pM,[2]; [14],22.4%
same,inhibition at 5.06 pM,[2]; [14],36.2%
same,inhibition at 10.1 pM,[2]; [14],40.7%
same,inhibition at 20.2 pM,[2]; [14],51%
same,inhibition at 40.5 pM,[2]; [14],57.5%
same,inhibition at 81 pM,[2]; [14],65.7%
same,inhibition at 20.2 pM,"[2]; Homo sapiens, MM1.S, read-out: inhibition of proliferation, single agent",51%
same,inhibition at 2.53 pM,[4]; [15],23.3%
same,inhibition at 5.06 pM,[4]; [15],26.7%
same,inhibition at 10.1 pM,[4]; [15],30%
same,inhibition at 20.2 pM,[4]; [15],39.9%
same,inhibition at 40.5 pM,[4]; [15],48.8%
same,inhibition at 81 pM,[4]; [15],55.4%
CCC(NC(C)C)C(O)c1ccc(O)c(O)c1 (stereo not drawn) [Isoetharine],Antiproliferative Activity,[3]; Isoetharine 0.000158 μM,7.35
same,Antiproliferative Activity,[3]; Isoetharine 0.000316 μM,7.35
same,Antiproliferative Activity,[3]; Isoetharine 0.00506 μM,29
Nc1cccc2c1CN(C1CCC(=O)NC1=O)C2=O (stereo not drawn) [lenalidomide],induction of MM.1S cell apoptosis,MM.1S cells; 1 μM lenalidomide,negligible effects
same,Antiproliferative Activity,"[4]; Salmeterol 0 μM (LEN alone), LEN μM r7-r15: 4.04, 2.02, 1.01, 0.505, 0.253, 0.126, 0.0632, 0.0316, 0",53.5 and 51.8 and 52.5 and 44.8 and 34.3 and 61.9 and 52.8 and 54.3
"Cc1ccc(OCC(O)C(C)NC(C)C)c2c1CCC2 (stereo not drawn) [ICI, 118,551]",percent inhibition of cell proliferation,"[1]; in the presence of […] ICI, 118,551, Dobutamine 0 μM, Dexamethasone (μM) by row: r8 0.15, r9 0.076, r10 0.038, r11 0.019, r12 0.0095, r13 0 (ICI alone)",1.9%
CC(C)(C)NCC(O)c1ccc(O)c(CO)c1 (stereo not drawn) [salbutamol],inhibition at 9.1 pM,[2]; [10],10%
same,inhibition at 0.00375 µM,[2]; [10],15%
same,inhibition at 0.00625 µM,[2]; [10],30%
same,inhibition at 0.0125 µM,[2]; [10],39%
same,inhibition at 0.05 µM,[2]; [10],51%
same,inhibition at 0.1 µM,[2]; [10],55%
same,inhibition at 0.2 µM,[2]; [10],58%
same,percent inhibition of cell proliferation,[5]; Salbutamol 0.00375 μM,−5.8%
same,percent inhibition of cell proliferation,[5]; Salbutamol 0.00625 μM,4.6%
same,percent inhibition of cell proliferation,[5]; Salbutamol 0.0125 μM,−1.9%
same,percent inhibition of cell proliferation,[5]; Salbutamol 0.05 μM,1.5%
same,percent inhibition of cell proliferation,[5]; Salbutamol 0.1 μM,11%
same,percent inhibition of cell proliferation,[5]; Salbutamol 0.2 μM,6.8%
same,inhibition of proliferation,[6]; MM.1R transfected with A2A receptor siRNA or control siRNA,65-68%
same,Antiproliferative Activity,[6]; MM.1R transfected with two different siRNA targeting the beta 2 receptor,39-45%
CC(C)C[C@H](NC(=O)[C@H](Cc1ccccc1)NC(=O)c1cnccn1)B(O)O [bortezomib],cells annexin V positive,"MM.1S cells; 2 nM bortezomib, 72 hours (FIG. 3)",50%
same,viability at 0.002 µM,[7],80%
same,inhibition,[8],30.8% and 19.6%
same,tumor growth inhibition (TGI),[9],38%
same,"colony number per 10,000 cells plated",RPMI-8226 cells; 100 nM bortezomib for 5 hours,39 colonies
same,"colony number per 10,000 cells plated",RPMI-8226 cells; 200 nM bortezomib for 5 hours,7 colonies
"COc1cc2c(cc1OC)-c1cc(=Nc3c(C)cc(C)cc3C)n(C)c(=O)n1CC2 [trequinsin, 2,3,6,7-tetrahydro-9,10-dimethoxy-3-methyl-2-((2,4,6-trimethylphenyl)imino)-4H-pyrimido(6,1-a)isoquinolin-4-one]",induction of MM.1S cell apoptosis,MM.1S cells; 2 μM trequinsin,negligible effects
same,inhibition at 0.00464 µM,[4]; [16],2.91%
same,inhibition at 0.125 µM,[4]; [16],4.39%
same,inhibition at 0.375 µM,[4]; [16],7.82%
